{"source": "paper PMC11428215", "about": "“Unveiling a New Antimicrobial Peptide with Efficacy against P. aeruginosa and K. pneumoniae from Mangrove-Derived Paenibacillus thiaminolyticus NNS5-6 and Genomic Analysis” (Antibiotics, 2024)", "key": {"P. aeruginosa TISTR 357 [1]": {"tested_on": "P. aeruginosa TISTR 357", "test": "Compatibility with surfactants, residual antibacterial activity", "format": "physicochemical, Pseudomonas aeruginosa", "conditions": "no AMP (same value in 1 h, 6 h and 12 h), agar well diffusion, % of non-treated AMP, mean ± SD, n = 3", "protocol": "The AMP was dissolved in sterile purified water and adjusted a final concentration to 16 µg/mL. The sensitivity of the AMP to temperatures of 37, 40, 50, 60, 80, and 100 °C, as well as autoclaving at 121 °C for 15 and 30 min was evaluated. The sensitivity of the AMP to proteolytic enzymes with different digesting characteristics was studied by incubating with a concentration of 1 mg/mL of proteinase K, trypsin, and α-chymotrypsin (Sigma-Aldrich, Warren, MI, USA). The compatibility of the AMP with surfactants was evaluated by exposing the AMP to 1% SDS or 1% Triton X-100 (AppliChem GmbH, Darmstadt, Germany). The degradation of the AMP under various pH conditions, including physiological and extended alkaline conditions, was evaluated by adjusting the pH of the solution to 1.2, 4.5, 6.8, 7.4, 8.0, 10.0, 12.0, and 14.0. After incubation, the pH of the AMP solution was neutralized to the original pH before being assessed for antibacterial activity. The antibacterial assay against P. aeruginosa TISTR 357 was conducted using the agar well diffusion assay in triplicate. The stability profiles are presented as the percentage of the residual activity compared with the non-treatment conditions (mean ± SD), and statistical significance was determined by the Student’s t-test at a p-value < 0.05."}, "[2]": {"tested_on": "S. typhimurium TISTR 1469", "test": "Agar well diffusion, antibacterial spectrum", "format": "cell-based, Salmonella typhimurium", "procedure": "(§1) The active isolates from the agar overlay assay were transferred into broth media identical to that used during the initial isolation. The cultures were incubated at 30 °C with shaking at 150 rpm for 18 h. The optical density of the starter culture was adjusted to a turbidity of 0.1 OD at 625 nm using a 0.85% sterile NaCl solution before transferring 1 mL of the culture into 49 mL of fresh broth. The inoculum was then incubated at 30 °C with shaking at 150 rpm for 24 h. The CFS was obtained by centrifugation at 10,000× g at 4 °C for 15 min and filtered through a 0.2 µm sterile cellulose acetate syringe filter. The antibacterial activity of the CFS derived from each isolate was investigated using P. aeruginosa TISTR 357, K. pneumoniae TISTR 1383, E. coli TISTR 887, S. typhimurium TISTR 1469, V. parahaemolyticus TISTR 1596, and S. aureus TISTR 517 from the Thailand Institute of Scientific and Technological Research (TISTR), Thailand. The antibiotic-resistant strain, MRSA strain 2468, was kindly provided by the medical technology laboratory at the School of the Allied Health Sciences, Walailak University, Thailand. The microbial indicators were incubated at 37 °C for 18 h on MH agar. […] The experiment was conducted in triplicate, and the mean ± SD of the diameters of the inhibition zones was measured."}, "E. coli TISTR 887": {"tested_on": "E. coli TISTR 887", "test": "Agar well diffusion, antibacterial spectrum", "format": "cell-based, Escherichia coli", "procedure": "as §1"}, "MRSA Strain 2468": {"tested_on": "MRSA Strain 2468", "test": "Agar well diffusion, antibacterial spectrum", "format": "cell-based, methicillin-resistant Staphylococcus aureus", "procedure": "as §1"}, "[3]": {"tested_on": "V. parahaemolyticus TISTR 1596", "test": "Agar well diffusion, antibacterial spectrum", "format": "cell-based, Vibrio parahaemolyticus", "procedure": "as §1"}, "S. aureus TISTR 517": {"tested_on": "S. aureus TISTR 517", "test": "Agar well diffusion, antibacterial spectrum", "format": "cell-based, Staphylococcus aureus", "procedure": "as §1"}, "P. aeruginosa TISTR 357 [4]": {"tested_on": "P. aeruginosa TISTR 357", "test": "Agar well diffusion, antibacterial spectrum", "format": "cell-based, Pseudomonas aeruginosa", "procedure": "as §1"}, "K. pneumoniae TISTR 1383 [5]": {"tested_on": "K. pneumoniae TISTR 1383", "test": "Agar well diffusion, antibacterial spectrum", "format": "cell-based, Klebsiella pneumoniae", "procedure": "as §1"}, "K. pneumoniae TISTR 1383 [6]": {"tested_on": "K. pneumoniae TISTR 1383", "format": "cell-based, Klebsiella pneumoniae", "conditions": "37 °C 24 h, triplicate", "procedure": "(§2) The MIC and MBC of the purified AMP were determined using the broth microdilution method following the guidance provided by the Clinical and Laboratory Standards Institute (CLSI). P. aeruginosa TISTR 357 and K. pneumoniae TISTR 1383 were cultured on MH agar and incubated at 37 °C for 18 h. A single colony of the tested bacteria was suspended in 0.85% NaCl until the suspension turbidity reached an OD of 0.1 at 625 nm. The cells were then diluted to 5 × 10^6 CFU/mL using cation-adjusted Mueller Hinton broth (CAMHB). The diluted cell suspension of 10 µL was transferred into each well of a 96-well plate with a final volume of 100 µL per well. The AMP was added to achieve final concentrations ranging from 0.125 to 64 µg/mL. Colistin was used as the positive control, while antibiotic-free samples were used as negative controls. The 96-well plate was incubated at 37 °C for 24 h. Each strain was tested in triplicate. […] Subsequently, 100 µL of each dilution was spread on MH agar and then incubated at 37 °C for 24 h. The MBC was identified as the lowest concentration at which no bacterial colony growth was observed on the agar plate."}, "P. aeruginosa TISTR 357 [7]": {"tested_on": "P. aeruginosa TISTR 357", "format": "cell-based, Pseudomonas aeruginosa", "conditions": "37 °C 24 h, triplicate", "procedure": "as §2"}, "[8]": {"conditions": "cited from earlier work", "description": "The AMP of Paenibacillus thiaminolyticus NNS5-6 was sensitive to proteinase K and trypsin, confirming its proteinaceous nature. […] The AMP was also stable across a wide pH range (pH 4.5–10) compared with extremely acidic and alkaline environments. This information could help inform temperature conditions and buffer choices during purification and guide the formulation development of drug delivery systems for suitable administration routes."}, "[9]": {"conditions": "plated on MH agar after microdilution"}, "[10]": {"conditions": "agar well diffusion on MH agar, 9 mm wells, 37 °C 18 h, CFS 100 µL, vancomycin 30 µg, colistin 1 µg, mean ± SD, n = 3"}}}
{"compound": "CCCCCCCCCCCCOS(=O)(=O)[O-].[Na+]", "note": "[SDS, reference compound]", "values": [{"measurement": "antibacterial activity of surfactant alone against P. aeruginosa TISTR 357, given as % residual activity", "setting": "P. aeruginosa TISTR 357 [1]; 1% SDS alone", "result": "121.76 ± 2.42", "unit": "%"}]}
{"compound": "CN[C@H](CC(C)C)C(=O)N[C@H]1C(=O)N[C@@H](CC(N)=O)C(=O)N[C@H]2C(=O)N[C@H]3C(=O)N[C@H](C(=O)N[C@H](C(=O)O)c4cc(O)cc(O)c4-c4cc3ccc4O)[C@H](O)c3ccc(c(Cl)c3)Oc3cc2cc(c3O[C@@H]2O[C@H](CO)[C@@H](O)[C@H](O)[C@H]2O[C@H]2C[C@](C)(N)[C@H](O)[C@H](C)O2)Oc2ccc(cc2Cl)[C@H]1O", "note": "[Vancomycin]", "values": [{"measurement": "zone of inhibition at 30 µg/disc", "setting": "[2]; Salmonella enterica, 18 h", "result": 0, "unit": "mm"}, {"measurement": "zone of inhibition at 30 µg/disc", "setting": "E. coli TISTR 887; Escherichia coli, TISTR887, 18 h", "result": 0, "unit": "mm"}, {"measurement": "zone of inhibition at 30 µg/disc", "setting": "MRSA Strain 2468; Staphylococcus aureus, MRSA, 18 h", "result": "21.8 ± 0.78", "unit": "mm"}, {"measurement": "zone of inhibition at 30 µg/disc", "setting": "[3]; Vibrio parahaemolyticus, TISTR1596, 18 h", "result": 0, "unit": "mm"}, {"measurement": "zone of inhibition at 30 µg/disc", "setting": "S. aureus TISTR 517; Staphylococcus aureus, TISTR517, 18 h", "result": "21.6 ± 0.51", "unit": "mm"}, {"measurement": "zone of inhibition at 30 µg/disc", "setting": "P. aeruginosa TISTR 357 [4]; Pseudomonas aeruginosa, TISTR357, 18 h", "result": 0, "unit": "mm"}, {"measurement": "zone of inhibition at 30 µg/disc", "setting": "K. pneumoniae TISTR 1383 [5]; Klebsiella pneumoniae, TISTR1383, 18 h", "result": 0, "unit": "mm"}]}
{"compound": "Colistin", "values": [{"measurement": "MIC", "setting": "K. pneumoniae TISTR 1383 [6]; broth microdilution, CAMHB", "result": 1, "unit": "µg/mL"}, {"measurement": "MBC", "setting": "K. pneumoniae TISTR 1383 [6]; [9]", "result": 1, "unit": "µg/mL"}, {"measurement": "MIC", "setting": "P. aeruginosa TISTR 357 [7]; broth microdilution, CAMHB", "result": 1, "unit": "µg/mL"}, {"measurement": "MBC", "setting": "P. aeruginosa TISTR 357 [7]; [9]", "result": 1, "unit": "µg/mL"}, {"measurement": "Zone of Inhibition", "setting": "[2]; [10]", "result": "20.4 ± 0.89", "unit": "mm"}, {"measurement": "Zone of Inhibition", "setting": "E. coli TISTR 887; [10]", "result": "18.13 ± 0.88", "unit": "mm"}, {"measurement": "Zone of Inhibition", "setting": "MRSA Strain 2468; [10]", "result": "0.00 ± 0.00", "unit": "mm"}, {"measurement": "Zone of Inhibition", "setting": "[3]; [10]", "result": "18.8 ± 0.76", "unit": "mm"}, {"measurement": "Zone of Inhibition", "setting": "S. aureus TISTR 517; [10]", "result": "0.00 ± 0.00", "unit": "mm"}, {"measurement": "Zone of Inhibition", "setting": "P. aeruginosa TISTR 357 [4]; [10]", "result": "18.05 ± 0.67", "unit": "mm"}, {"measurement": "Zone of Inhibition", "setting": "K. pneumoniae TISTR 1383 [5]; [10]", "result": "18.81 ± 0.39", "unit": "mm"}]}
{"compound": "Triton X-100 [reference compound]", "values": [{"measurement": "antibacterial activity of surfactant alone against P. aeruginosa TISTR 357, given as % residual activity", "setting": "P. aeruginosa TISTR 357 [1]; 1% Triton X-100 alone", "result": "126.83 ± 2.72", "unit": "%"}]}
{"compound": "fusaricidin A", "values": [{"measurement": "sensitivity to protease treatment", "setting": "[8]", "result": "insensitive to protease treatment"}, {"measurement": "pH range over which antimicrobial activity is retained", "setting": "[8]; fusaricidin A produced by Paenibacillus bovis sp. nov BD3526", "result": "2.0 to 9.0"}]}
